Test results as given in ChEMBL document CHEMBL3259515, “Further studies on ethyl 5-hydroxy-indole-3-carboxylate scaffold: design, synthesis and evaluation of 2-phenylthiomethyl-indole derivatives as efficient inhibitors of human 5-lipoxygenase” (Eur J Med Chem, 2014).
The source made the active and inactive calls. The rule behind the calls is not given here.

How the values were obtained:
[1] = biological target: T1, Polyunsaturated fatty acid 5-lipoxygenase (Homo sapiens, UniProt P09917); experiment: Inhibition of 5-LO in human polymorphonuclear leukocytes assessed as inhibition of LTB4 production from arachidonic acid preincubated for 15 mins by HPLC analysis; assay type: cell-based
T1 sequence (P09917 whole entry): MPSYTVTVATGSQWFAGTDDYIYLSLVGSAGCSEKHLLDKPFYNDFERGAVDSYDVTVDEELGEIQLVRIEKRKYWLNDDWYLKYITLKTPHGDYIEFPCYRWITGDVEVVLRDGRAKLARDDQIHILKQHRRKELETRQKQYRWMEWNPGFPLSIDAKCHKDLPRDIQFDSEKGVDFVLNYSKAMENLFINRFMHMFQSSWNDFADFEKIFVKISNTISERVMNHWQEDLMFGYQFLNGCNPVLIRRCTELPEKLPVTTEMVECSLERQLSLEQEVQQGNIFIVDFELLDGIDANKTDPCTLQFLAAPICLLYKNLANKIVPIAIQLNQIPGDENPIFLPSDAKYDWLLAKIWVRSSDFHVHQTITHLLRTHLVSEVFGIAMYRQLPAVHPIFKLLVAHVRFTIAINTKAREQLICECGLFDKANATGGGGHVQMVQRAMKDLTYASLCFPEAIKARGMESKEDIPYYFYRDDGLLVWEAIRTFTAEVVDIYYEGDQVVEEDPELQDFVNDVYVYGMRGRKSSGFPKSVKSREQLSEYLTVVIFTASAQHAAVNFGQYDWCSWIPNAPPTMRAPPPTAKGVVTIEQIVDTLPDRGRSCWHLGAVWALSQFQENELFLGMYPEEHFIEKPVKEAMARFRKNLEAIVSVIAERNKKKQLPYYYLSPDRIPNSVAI

[2] = biological target: T2, Polyunsaturated fatty acid lipoxygenase ALOX15 (Homo sapiens) (UniProt P16050); experiment: Inhibition of 15-LO-mediated 15-H(P)ETE production in human polymorphonuclear leukocytes assessed as remaining activity preincubated at 10 uM for 15 mins by HPLC analysis; assay type: cell-based
T2 sequence (whole entry): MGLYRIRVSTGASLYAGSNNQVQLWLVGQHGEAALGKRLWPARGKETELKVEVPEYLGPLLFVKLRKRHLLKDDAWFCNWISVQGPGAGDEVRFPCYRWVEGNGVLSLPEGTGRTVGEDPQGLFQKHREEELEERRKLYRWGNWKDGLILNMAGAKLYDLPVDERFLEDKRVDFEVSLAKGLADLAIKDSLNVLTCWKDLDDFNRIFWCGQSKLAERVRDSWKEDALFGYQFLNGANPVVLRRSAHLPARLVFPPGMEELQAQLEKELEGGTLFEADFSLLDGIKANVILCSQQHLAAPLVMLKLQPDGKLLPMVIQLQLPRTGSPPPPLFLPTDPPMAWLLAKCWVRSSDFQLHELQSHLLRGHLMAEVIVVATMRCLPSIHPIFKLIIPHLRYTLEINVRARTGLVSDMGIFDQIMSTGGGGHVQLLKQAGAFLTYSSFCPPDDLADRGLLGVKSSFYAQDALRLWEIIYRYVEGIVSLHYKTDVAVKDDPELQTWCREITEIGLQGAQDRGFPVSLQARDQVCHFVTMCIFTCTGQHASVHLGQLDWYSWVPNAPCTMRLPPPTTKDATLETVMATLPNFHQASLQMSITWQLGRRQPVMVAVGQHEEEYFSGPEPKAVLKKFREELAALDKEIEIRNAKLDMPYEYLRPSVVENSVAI

[3] = biological target: T3, Polyunsaturated fatty acid lipoxygenase ALOX12 (Homo sapiens) (UniProt P18054); experiment: Inhibition of 12-LO-mediated 12-H(P)ETE production in human polymorphonuclear leukocytes assessed as remaining activity preincubated at 10 uM for 15 mins by HPLC analysis; assay type: cell-based
T3 sequence (whole entry): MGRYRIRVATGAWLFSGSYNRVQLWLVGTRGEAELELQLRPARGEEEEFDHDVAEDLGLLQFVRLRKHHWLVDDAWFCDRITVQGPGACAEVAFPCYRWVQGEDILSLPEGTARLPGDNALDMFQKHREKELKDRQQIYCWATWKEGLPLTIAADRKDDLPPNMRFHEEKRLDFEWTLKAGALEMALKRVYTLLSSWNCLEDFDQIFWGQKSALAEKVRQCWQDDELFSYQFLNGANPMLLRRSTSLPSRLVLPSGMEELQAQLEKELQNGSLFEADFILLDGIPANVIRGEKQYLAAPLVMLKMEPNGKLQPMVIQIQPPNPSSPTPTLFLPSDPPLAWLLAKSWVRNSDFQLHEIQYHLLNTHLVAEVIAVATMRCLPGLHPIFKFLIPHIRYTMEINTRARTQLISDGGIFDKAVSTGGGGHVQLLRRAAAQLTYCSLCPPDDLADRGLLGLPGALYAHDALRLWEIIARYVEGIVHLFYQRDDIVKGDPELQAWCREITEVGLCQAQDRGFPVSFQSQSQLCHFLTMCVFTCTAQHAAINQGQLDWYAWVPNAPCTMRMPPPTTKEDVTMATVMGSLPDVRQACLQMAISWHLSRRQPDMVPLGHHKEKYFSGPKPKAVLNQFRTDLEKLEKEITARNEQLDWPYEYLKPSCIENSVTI

[4] = biological target: T1, Polyunsaturated fatty acid 5-lipoxygenase; experiment: Inhibition of human recombinant 5-LO expressed in Escherichia coli BL21 using arachidonic acid as substrate preincubated for 5 to 10 mins by HPLC analysis
[5] = biological target: T4, Prostaglandin G/H synthase 1 (Ovis aries) (UniProt P05979); experiment: Inhibition of purified ovine COX1 preincubated for 5 mins by HPLC analysis
T4 sequence (whole entry): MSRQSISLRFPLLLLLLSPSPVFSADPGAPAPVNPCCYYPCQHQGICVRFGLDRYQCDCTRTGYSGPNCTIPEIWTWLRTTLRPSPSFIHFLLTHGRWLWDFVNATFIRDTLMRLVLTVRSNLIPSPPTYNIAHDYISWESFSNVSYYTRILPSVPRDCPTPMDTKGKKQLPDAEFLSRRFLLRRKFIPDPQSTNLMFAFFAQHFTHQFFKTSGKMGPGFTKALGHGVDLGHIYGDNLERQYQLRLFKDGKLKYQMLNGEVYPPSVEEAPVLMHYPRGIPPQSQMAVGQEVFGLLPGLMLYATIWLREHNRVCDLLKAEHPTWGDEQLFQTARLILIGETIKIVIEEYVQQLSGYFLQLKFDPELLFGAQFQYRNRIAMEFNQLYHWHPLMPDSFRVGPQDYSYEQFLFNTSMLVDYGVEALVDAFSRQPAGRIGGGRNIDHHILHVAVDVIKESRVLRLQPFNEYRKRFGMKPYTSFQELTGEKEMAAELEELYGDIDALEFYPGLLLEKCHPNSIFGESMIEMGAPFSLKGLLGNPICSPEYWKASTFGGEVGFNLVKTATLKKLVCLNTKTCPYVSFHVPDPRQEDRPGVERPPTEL

[6] = biological target: T5, Prostaglandin G/H synthase 2 (Homo sapiens) (UniProt P35354); experiment: Inhibition of human recombinant COX2 preincubated for 5 mins by HPLC analysis
T5 sequence (whole entry): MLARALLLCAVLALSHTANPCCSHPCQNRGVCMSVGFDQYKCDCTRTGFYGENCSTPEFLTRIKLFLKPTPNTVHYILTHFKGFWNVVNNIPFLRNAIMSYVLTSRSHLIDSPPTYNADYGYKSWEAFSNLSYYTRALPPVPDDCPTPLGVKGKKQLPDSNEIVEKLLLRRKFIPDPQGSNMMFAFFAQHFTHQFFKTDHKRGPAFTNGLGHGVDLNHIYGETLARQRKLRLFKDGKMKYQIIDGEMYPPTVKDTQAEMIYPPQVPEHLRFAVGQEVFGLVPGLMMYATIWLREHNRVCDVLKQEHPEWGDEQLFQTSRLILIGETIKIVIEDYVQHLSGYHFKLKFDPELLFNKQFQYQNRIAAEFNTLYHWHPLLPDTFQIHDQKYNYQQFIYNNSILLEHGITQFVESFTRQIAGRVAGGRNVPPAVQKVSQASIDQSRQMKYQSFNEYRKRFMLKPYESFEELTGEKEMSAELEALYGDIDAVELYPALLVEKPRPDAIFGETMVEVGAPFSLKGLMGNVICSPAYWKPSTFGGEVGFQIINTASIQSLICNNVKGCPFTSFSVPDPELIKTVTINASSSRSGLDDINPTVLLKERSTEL

[7] = biological target: T6, Polyunsaturated fatty acid lipoxygenase ALOX15 (Homo sapiens, UniProt P16050); experiment: Inhibition of 15-LO in human polymorphonuclear leukocytes assessed as inhibition of 15-H(P)ETE production from arachidonic acid preincubated for 15 mins by HPLC analysis; assay type: cell-based
T6 sequence (P16050 whole entry): T2 sequence (whole entry)

Row | IC50 [1] | Activity [2] | Activity [3] | IC50 [4] | inhibition [5] | inhibition [6] | IC50 [7] | SMILES
1 | 6800 nM | 102% | 91.4% | 3200 nM |  |  |  | CCOC(=O)c1c(CSc2ccc(F)cc2F)n(C)c2ccc(O)cc12
2 | 2700 nM | 150% | 107% | 1800 nM |  |  |  | CCOC(=O)c1c(CSc2cc(C)cc(C)c2)n(C)c2ccc(O)cc12
3 | 5100 nM | 136% | 108% | 2900 nM |  |  |  | CCOC(=O)c1c(CSc2ccccc2OC)n(C)c2ccc(O)cc12
4 | 3100 nM | 128% | 92.1% | 2300 nM |  |  |  | CCOC(=O)c1c(CSc2ccc(OC)cc2)n(C)c2ccc(O)cc12
5 | 2100 nM | 107% | 94.1% | 900 nM |  |  |  | CCOC(=O)c1c(CSc2ccc(OC(F)(F)F)cc2)n(C)c2ccc(O)cc12
6 | 1200 nM | 125% | 94.1% | 800 nM |  |  |  | CCOC(=O)c1c(CSc2c(C)cccc2C)n(C)c2ccc(O)cc12
7 | 2400 nM | 130% | 92.4% | 5700 nM |  |  |  | CCOC(=O)c1c(CSc2ccccc2)n(C)c2ccc(O)cc12
8 | 230 nM | 33% | 86.5% | 700 nM | inactive | inactive | 8200 nM | CCOC(=O)c1c(CSc2c(C)cc(C)cc2C)n(C)c2ccc(O)cc12
9 | 9100 nM | 120% | 100% | 5000 nM |  |  |  | CCOC(=O)c1c(CSc2ccc(F)cc2)n(C)c2ccc(O)cc12
10 |  | 11.1% | 5.6% |  |  |  |  | N#C/C(=C\c1ccc(O)c(O)c1)C(=O)OC/C=C/c1ccccc1
11 | > 10000 nM | 114% | 92.9% | 3800 nM |  |  |  | CCOC(=O)c1c(CSc2cccc(Cl)c2)n(C)c2ccc(O)cc12
12 | > 10000 nM | 114% | 102% | 4200 nM |  |  |  | CCOC(=O)c1c(CSc2ccc(C(F)(F)F)cc2)n(C)c2ccc(O)cc12
13 | 900 nM | 136% | 103% | 800 nM | inactive | inactive |  | CCOC(=O)c1c(CSc2c(Cl)cccc2Cl)n(C)c2ccc(O)cc12
14 | 1200 nM | 126% | 104% | 800 nM |  |  |  | CCOC(=O)c1c(CSc2ccccc2C(F)(F)F)n(C)c2ccc(O)cc12
